Results from patent US20240059691A1 (KALVISTA PHARMACEUTICALS LIMITED, priority 2020, published 2024).

Experiments:
Human Factor XIIa = Human Factor XIIa (Homo sapiens (Human), UniProt P00748); assay: Determination of FXIIa inhibition (fluorogenic substrate H-DPro-Phe-Arg-AFC, IC50 assay); type: biochemical; settings: substrate H-DPro-Phe-Arg-AFC at Km, 25° C.; class scale A-G
Summary of the method: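 Human FXIIa incubated at 25° C with fluorogenic substrate H-DPro-Phe-Arg-AFC at its Km concentration and varying compound concentrations. Fluorescence release monitored over 5 min at 25° C; linear rate expressed as % of uninhibited activity to derive IC50.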

Plasma Kallikrein = Plasma Kallikrein (Homo sapiens (Human), UniProt P03952); assay: Determination of related protease inhibition: Plasma Kallikrein (fluorogenic substrate at Km); type: biochemical; settings: 25° C., read-out: IC50 (human PKal)
Plasma Kallikrein, sequence (P03952 391-638): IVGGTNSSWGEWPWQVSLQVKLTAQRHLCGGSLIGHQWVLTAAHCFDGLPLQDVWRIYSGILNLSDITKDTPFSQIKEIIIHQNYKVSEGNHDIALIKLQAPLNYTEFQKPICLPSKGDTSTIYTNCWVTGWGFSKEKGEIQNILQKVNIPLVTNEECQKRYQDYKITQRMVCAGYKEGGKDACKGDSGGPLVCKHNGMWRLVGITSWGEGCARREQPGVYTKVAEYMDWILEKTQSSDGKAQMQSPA
Plasma Kallikrein, sequence (P03952 20-390 partner): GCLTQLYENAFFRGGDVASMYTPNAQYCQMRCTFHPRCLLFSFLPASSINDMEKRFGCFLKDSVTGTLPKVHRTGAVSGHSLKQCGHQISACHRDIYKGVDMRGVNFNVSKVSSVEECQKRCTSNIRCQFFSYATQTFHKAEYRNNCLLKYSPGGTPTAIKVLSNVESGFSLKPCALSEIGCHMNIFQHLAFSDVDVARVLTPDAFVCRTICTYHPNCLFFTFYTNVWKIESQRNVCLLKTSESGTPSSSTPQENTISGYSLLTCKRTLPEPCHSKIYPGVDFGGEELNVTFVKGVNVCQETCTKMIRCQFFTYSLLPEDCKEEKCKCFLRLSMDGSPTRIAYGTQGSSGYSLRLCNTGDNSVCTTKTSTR
Summary of the method: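 Human enzyme incubated with test compound over a concentration range and a fluorogenic substrate at its Km concentration. Liberated fluorescence monitored over 5 min at 25 °C; linear rate per minute expressed as % of uninhibited activity, and IC50 taken as the concentration giving 50% inhibition.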

Human Factor XIIa, sequence (P00748 373-615): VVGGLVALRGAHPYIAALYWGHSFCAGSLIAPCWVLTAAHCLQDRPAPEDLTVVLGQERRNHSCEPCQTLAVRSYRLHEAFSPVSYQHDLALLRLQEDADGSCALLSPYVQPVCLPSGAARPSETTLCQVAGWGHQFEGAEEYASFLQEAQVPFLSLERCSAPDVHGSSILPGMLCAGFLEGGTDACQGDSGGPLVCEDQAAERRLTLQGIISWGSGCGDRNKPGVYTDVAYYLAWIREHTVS

SMILES: Nc1ncc(Cl)c2cc(NCc3ccc(N4CCc5nccn5CC4)nc3)ccc12 [Example 1272, 4-chloro-N6-((6-(5,6,8,9-tetrahydro-7H-imidazo[1,2-d][1,4]diazepin-7-yl)pyridin-3-yl)methyl)isoquinoline-1,6-diamine]
- IC50 (Human Factor XIIa): 1 to 3 µM
- IC50 (Plasma Kallikrein): 10 to 40 µM

SMILES: CN1CCC(CNc2ccc(CNc3cc(Cl)c4cnccc4c3)cn2)CC1 [Example 1208, 8-chloro-N-((6-(((1-methylpiperidin-4-yl)methyl)amino)pyridin-3-yl)methyl)isoquinolin-6-amine]
- IC50 (Human Factor XIIa): 3 to 10 µM
- IC50 (Plasma Kallikrein): > 40 µM

SMILES: Cc1cc2c(NCc3ccc(OCC4CCN(C)CC4)nc3)ccnc2[nH]1 [Example 1249, 2-methyl-N-((6-((1-methylpiperidin-4-yl)methoxy)pyridin-3-yl)methyl)-1H-pyrrolo[2,3-b]pyridin-4-amine]
- IC50 (Human Factor XIIa): 0.3 to 1 µM
- IC50 (Plasma Kallikrein): > 40 µM

SMILES: Nc1nccc2c(NCc3ccc(OC4CCn5ccnc5C4)nc3)cccc12 (stereo not shown) [Example 1049, N5-[[6-(5,6,7,8-tetrahydroimidazo[1,2-a]pyridin-7-yloxy)-3-pyridyl]methyl]isoquinoline-1,5-diamine]
- IC50 (Human Factor XIIa): 0.3 to 1 µM
- IC50 (Plasma Kallikrein): > 40 µM

SMILES: CN1CCC(CNc2ccc(CNc3ccncc3)cn2)CC1 [Example 1258, N-((1-methylpiperidin-4-yl)methyl)-5-((pyridin-4-ylamino)methyl)pyridin-2-amine]
- IC50 (Human Factor XIIa): 10 to 40 µM
- IC50 (Plasma Kallikrein): > 40 µM

SMILES: CN1CCC(OCc2ccc(CNc3ccc4nc(N)ccc4c3)cc2)CC1 [Example 2187, N6-(4-(((1-methylpiperidin-4-yl)oxy)methyl)benzyl)quinoline-2,6-diamine]
- IC50 (Human Factor XIIa): 3 to 10 µM
- IC50 (Plasma Kallikrein): 10 to 40 µM

SMILES: CC(C)(O)[C@@H]1CCN(c2ccc(CNc3cccc4c(N)nccc34)cn2)C1 [Example 1130, (R)-2-(1-(5-(((1-aminoisoquinolin-5-yl)amino)methyl)pyridin-2-yl)pyrrolidin-3-yl)propan-2-ol]
- IC50 (Human Factor XIIa): 3 to 10 µM
- IC50 (Plasma Kallikrein): > 40 µM

SMILES: CN1CCC(CNc2ccc(CNc3ccc4c(N)ncc(Cl)c4c3)cn2)CC1 [Example 1193, 4-chloro-N6-((6-(((1-methylpiperidin-4-yl)methyl)amino)pyridin-3-yl)methyl)isoquinoline-1,6-diamine]
- IC50 (Human Factor XIIa): 0.1 to 0.3 µM
- IC50 (Plasma Kallikrein): 3 to 10 µM

SMILES: Nc1ncc(Cl)c2cc(NCc3ccnc(OCC4CCn5ccnc5C4)c3)ccc12 (single isomer, unassigned) [Example 4439, (R*)-4-chloro-N6-((2-((5,6,7,8-tetrahydroimidazo[1,2-a]pyridin-7-yl)methoxy)pyridin-4-yl)methyl)isoquinoline-1,6-diamine]
- IC50 (Human Factor XIIa): 0.1 to 0.3 µM
- IC50 (Plasma Kallikrein): 10 to 40 µM

SMILES: Nc1nccc2c(NCc3ccc(NCCc4nccn4C(F)F)nc3)cccc12 [Example 1181, N5-((6-((2-(1-(difluoromethyl)-1H-imidazol-2-yl)ethyl)amino)pyridin-3-yl)methyl)isoquinoline-1,5-diamine]
- IC50 (Human Factor XIIa): 10 to 40 µM
- IC50 (Plasma Kallikrein): > 40 µM

SMILES: Nc1ncc(Cl)c2cc(NCc3ccc(N4CCC(CC(F)F)C4)nc3)ccc12 (stereo not shown) [Example 1266, 4-chloro-N6-((6-(3-(2,2-difluoroethyl)pyrrolidin-1-yl)pyridin-3-yl)methyl)isoquinoline-1,6-diamine]
- IC50 (Human Factor XIIa): 10 to 40 µM
- IC50 (Plasma Kallikrein): > 40 µM

SMILES: Nc1ncc(Cl)c2cc(NCc3ccnc(OCc4ccn5ccnc5c4)c3)ccc12 [Example 4433, 4-chloro-6-N-[(2-{imidazo[1,2-a]pyridin-7-ylmethoxy}pyridin-4-yl)methyl]isoquinoline-1,6-diamine]
- IC50 (Human Factor XIIa): 1 to 3 µM
- IC50 (Plasma Kallikrein): > 40 µM

SMILES: Nc1nccc2c(CCc3ccnc(OCC4CCn5ccnc5C4)c3)cccc12 (stereo not shown) [Example 4452, 5-(2-(2-((5,6,7,8-tetrahydroimidazo[1,2-a]pyridin-7-yl)methoxy)pyridin-4-yl)ethyl)isoquinolin-1-amine]
- IC50 (Human Factor XIIa): 0.3 to 1 µM
- IC50 (Plasma Kallikrein): > 40 µM

SMILES: CN1CCC(COc2cc(CNc3ccc4cnccc4c3F)ccn2)CC1 [Example 4466, 5-fluoro-N-((2-((1-methylpiperidin-4-yl)methoxy)pyridin-4-yl)methyl)isoquinolin-6-amine]
- IC50 (Human Factor XIIa): 3 to 10 µM
- IC50 (Plasma Kallikrein): > 100 µM

SMILES: CN1CCC(COc2cc(CNc3ccc(F)c4c(N)nccc34)ccn2)CC1 [Example 4469, 8-fluoro-N5-((2-((1-methylpiperidin-4-yl)methoxy)pyridin-4-yl)methyl)isoquinoline-1,5-diamine]
- IC50 (Human Factor XIIa): 3 to 10 µM
- IC50 (Plasma Kallikrein): > 40 µM

SMILES: Nc1ncc(Cl)c2cc(NCc3ccnc(OCC4CCn5cc(CO)nc5C4)c3)ccc12 (stereo not shown) [Example 4449, (7-(((4-(((1-amino-4-chloroisoquinolin-6-yl)amino)methyl)pyridin-2-yl)oxy)methyl)-5,6,7,8-tetrahydroimidazo[1,2-a]pyridin-2-yl)methanol]
- IC50 (Human Factor XIIa): 0.3 to 1 µM
- IC50 (Plasma Kallikrein): > 40 µM

SMILES: COc1ccc2c(NCc3ccc(NCC4CCN(C)CC4)nc3)ccnc2c1 [Example 1217, 7-methoxy-N-((6-(((1-methylpiperidin-4-yl)methyl)amino)pyridin-3-yl)methyl)quinolin-4-amine]
- IC50 (Human Factor XIIa): 40 to 100 µM
- IC50 (Plasma Kallikrein): > 40 µM

SMILES: Cc1n[nH]c2c1CCC2Nc1cc(CNc2ccc3c(N)ncc(Cl)c3c2)ccn1 (stereo not shown) [Example 4440, 4-chloro-N6-((2-((3-methyl-1,4,5,6-tetrahydrocyclopenta[c]pyrazol-6-yl)amino)pyridin-4-yl)methyl)isoquinoline-1,6-diamine]
- IC50 (Human Factor XIIa): 10 to 40 µM
- IC50 (Plasma Kallikrein): > 40 µM

SMILES: CN1CCC(CNc2ccc(CNc3cccc4c(N)ncc(F)c34)cn2)CC1 [Example 1194, 4-fluoro-N5-((6-(((1-methylpiperidin-4-yl)methyl)amino)pyridin-3-yl)methyl)isoquinoline-1,5-diamine]
- IC50 (Human Factor XIIa): 3 to 10 µM
- IC50 (Plasma Kallikrein): > 40 µM

SMILES: FC(F)(F)c1nnc2n1CCN(c1ccc(CNc3ccnc4[nH]c(Cl)cc34)cn1)C2 [Example 1280, 2-chloro-N-((6-(3-(trifluoromethyl)-5,6-dihydro-[1,2,4]triazolo[4,3-a]pyrazin-7(8H)-yl)pyridin-3-yl)methyl)-1H-pyrrolo[2,3-b]pyridin-4-amine]
- IC50 (Human Factor XIIa): 0.3 to 1 µM
- IC50 (Plasma Kallikrein): > 40 µM

SMILES: CN1CCC(CNc2ccc(CNc3cc(C(=O)O)nc4[nH]ccc34)cn2)CC1 [Example 1263, 4-(((6-(((1-methylpiperidin-4-yl)methyl)amino)pyridin-3-yl)methyl)amino)-1H-pyrrolo [2,3-b]pyridine-6-carboxylic acid]
- IC50 (Human Factor XIIa): 10 to 40 µM
- IC50 (Plasma Kallikrein): > 40 µM

SMILES: CC(C)N1CC2CCC(C1)C2COc1cc(CNc2cccc3c(N)nccc23)ccn1 (stereo not shown) [Example 4297, N5-((2-((3-isopropyl-3-azabicyclo[3.2.1]octan-8-yl)methoxy)pyridin-4-yl)methyl)isoquinoline-1,5-diamine]
- IC50 (Human Factor XIIa): 0.1 to 0.3 µM
- IC50 (Plasma Kallikrein): > 4 µM

SMILES: FC(F)(F)c1nnc2n1CCN(c1ccc(CNc3ccc4cnccc4c3)cn1)C2 [Example 1283, N-((6-(3-(trifluoromethyl)-5,6-dihydro-[1,2,4]triazolo[4,3-a]pyrazin-7(8H)-yl)pyridin-3-yl)methyl)isoquinolin-6-amine]
- IC50 (Human Factor XIIa): 3 to 10 µM
- IC50 (Plasma Kallikrein): > 40 µM

SMILES: Cc1c[nH]c2nccc(NCc3ccc(NCC4CCN(C)CC4)nc3)c12 [Example 1226, 3-methyl-N-((6-(((1-methylpiperidin-4-yl)methyl)amino)pyridin-3-yl)methyl)-1H-pyrrolo[2,3-b]pyridin-4-amine]
- IC50 (Human Factor XIIa): 3 to 10 µM
- IC50 (Plasma Kallikrein): > 100 µM

SMILES: CC(C)N1CCC(OCc2ccc(CNc3ccc4c(N)nccc4c3)c(F)c2)CC1 [Example 2216, 6-N-[(2-fluoro-4-{[(1-isopropylpiperidin-4-yl)oxy]methyl}phenyl)methyl]isoquinoline-1,6-diamine]
- IC50 (Human Factor XIIa): 0.1 to 0.3 µM
- IC50 (Plasma Kallikrein): 1 to 3 µM

SMILES: Cc1cnc2n1CCC(COc1cc(CNc3cccc4c(N)nccc34)ccn1)C2 (single isomer, unassigned) [Example 4444, (S*)-N5-((2-((3-methyl-5,6,7,8-tetrahydroimidazo[1,2-a]pyridin-7-yl)methoxy)pyridin-4-yl)methyl)isoquinoline-1,5-diamine]
- IC50 (Human Factor XIIa): 0.1 to 0.3 µM
- IC50 (Plasma Kallikrein): 3 to 10 µM

SMILES: Nc1ncc(Cl)c2cc(NCc3ccc(NCC4CCn5ccnc5C4)nc3)ccc12 (stereo not shown) [Example 1044, 4-Chloro-N6-[[6-(5,6,7,8-tetrahydroimidazo[1,2-a]pyridin-7-ylmethylamino)-3-pyridyl]methyl]isoquinoline-1,6-diamine]
- IC50 (Human Factor XIIa): 0.1 to 0.3 µM
- IC50 (Plasma Kallikrein): 3 to 10 µM

SMILES: CN1CCC(OCc2ccc(CN(C)c3ccc4c(N)nccc4c3)cc2)CC1 [Example 2190, N6-methyl-N6-(4-(((1-methylpiperidin-4-yl)oxy)methyl)benzyl)isoquinoline-1,6-diamine]
- IC50 (Human Factor XIIa): 1 to 3 µM
- IC50 (Plasma Kallikrein): 3 to 10 µM

SMILES: Nc1nccc2c(NCc3ccnc(OCC4CCn5ccnc5C4)c3)cccc12 (single isomer, unassigned) [Example 4431, (R*)-N5-((2-((5,6,7,8-tetrahydroimidazo[1,2-a]pyridin-7-yl)methoxy)pyridin-4-yl)methyl)isoquinoline-1,5-diamine]
- IC50 (Human Factor XIIa): 0.1 to 0.3 µM
- IC50 (Plasma Kallikrein): > 4 µM

SMILES: Nc1ncc(Cl)c2cc(NCc3ccc(NCc4nccn4C(F)F)nc3)ccc12 [Example 1185]
- IC50 (Human Factor XIIa): 10 to 40 µM
- IC50 (Plasma Kallikrein): > 40 µM

SMILES: Cc1cc(NCc2ccc(NCC3CCN(C)CC3)nc2)c2cc[nH]c2n1 [Example 1246, 6-methyl-N-((6-(((1-methylpiperidin-4-yl)methyl)amino)pyridin-3-yl)methyl)-1H-pyrrolo[2,3-b]pyridin-4-amine]
- IC50 (Human Factor XIIa): 3 to 10 µM
- IC50 (Plasma Kallikrein): > 40 µM

SMILES: Nc1ncc(Cl)c2cc(NCc3ccnc(N4CCn5ccnc5C4)c3)ccc12 [Example 5437, 4-chloro-N6-((2-(5,6-dihydroimidazo[1,2-a]pyrazin-7(8H)-yl)pyridin-4-yl)methyl)isoquinoline-1,6-diamine]
- IC50 (Human Factor XIIa): 10 to 40 µM
- IC50 (Plasma Kallikrein): > 40 µM
